biological target: T1, human Edg-1 receptor (Homo sapiens, UniProt P21453); test: GTP-γ-S assay using human Edg-1 receptors (scintillation proximity assay, membrane preparation from CHO Flp-In cell line); format: biochemical; details: example compound at 10 μM; relative to 10 μM S1P; GTP-γ-S SPA, human Edg-1 membranes
T1 construct: expressed in transfected cells; membrane preparation
Summary of the method: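 Scintillation proximity GTP-γ-S binding assay measuring receptor activation. Membranes prepared from a CHO Flp-In line stably overexpressing N-terminally FLAG-tagged human Edg-1.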

T1 sequence (P21453 whole entry): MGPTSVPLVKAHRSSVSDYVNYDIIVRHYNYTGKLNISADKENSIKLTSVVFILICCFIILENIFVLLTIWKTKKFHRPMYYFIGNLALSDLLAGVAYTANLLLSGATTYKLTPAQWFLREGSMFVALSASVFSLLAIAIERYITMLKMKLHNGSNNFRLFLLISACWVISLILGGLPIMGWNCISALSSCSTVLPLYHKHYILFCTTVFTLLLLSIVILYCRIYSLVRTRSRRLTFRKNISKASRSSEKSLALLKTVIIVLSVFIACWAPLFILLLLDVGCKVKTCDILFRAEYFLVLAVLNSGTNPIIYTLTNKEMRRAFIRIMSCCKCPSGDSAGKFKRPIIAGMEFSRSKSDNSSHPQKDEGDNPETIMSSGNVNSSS

Row | % Activation (Edg-1 receptor activation in percent of the activation by 10 μM S1P) [%] | SMILES
1 | 125 | CCCOc1nc(Cc2ccc(Cl)cc2)nc2oc(-c3cc(C)c(OCC(=O)N4CC[C@@H](O)C4)c(C)c3)nc12 [Example 232]
2 | 79 | CCCOc1nc(Cc2ccc(Cl)cc2)nc2oc(-c3cc(C)c(OCC(=O)OCC)c(C)c3)nc12 [Example 233]
3 | 106 | CCOc1nc(Cc2ccc(Cl)cc2)nc2oc(-c3cc(C)c(OCC(=O)NCCN4CCOCC4)c(C)c3)nc12 [Example 234]
4 | 59 | CCCOc1nc(Cc2ccc(Cl)cc2)nc2oc(-c3cc(C)c(OCCc4c(C)noc4C)c(C)c3)nc12 [Example 235]
5 | 102 | CCOc1nc(Cc2ccc(Cl)cc2)nc2oc(-c3cc(C)c(OCC(O)CN4CCOCC4)c(C)c3)nc12 (stereo not drawn) [Example 236]
6 | 115 | CCCOc1nc(Cc2ccc(Cl)cc2)nc2oc(-c3cc(C)c(OCC(O)CNCCC(=O)O)c(C)c3)nc12 (stereo not drawn) [Example 237]
7 | 71 | CCOc1nc(Cc2ccc(Cl)cc2)nc2oc(-c3cc(C)c(OCC(O)CN(CC)CC)c(C)c3)nc12 (stereo not drawn) [Example 238]
8 | 86 | CCOc1nc(Cc2ccc(Cl)cc2)nc2oc(-c3cc(C)c(OCC(=O)N4CCC(C(=O)O)C4)c(C)c3)nc12 (stereo not drawn) [Example 239]
9 | 128 | CCCOc1nc(Cc2ccc(Cl)cc2)nc2oc(-c3cc(C)c(OCC(=O)NCCC(=O)O)c(C)c3)nc12 [Example 241]
10 | 106 | CCCOc1nc(Cc2ccc(Cl)cc2)nc2oc(-c3cc(C)c(OCC(=O)N4CC(C(=O)O)C4)c(C)c3)nc12 [Example 242]
11 | 106 | CCCOc1nc(Cc2ccc(Cl)cc2)nc2oc(-c3cc(C)c(OCC(=O)N4CCC(C(=O)O)C4)c(C)c3)nc12 (stereo not drawn) [Example 243]
12 | 97 | CCCOc1nc(Cc2ccc(Cl)cc2)nc2oc(-c3cc(C)c(OCC(=O)NCCO)c(C)c3)nc12 [Example 244]
13 | 144 | CCCOc1nc(Cc2ccc(Cl)cc2)nc2oc(-c3cc(C)c(OCC(=O)N4CCC[C@H]4C(=O)O)c(C)c3)nc12 [Example 245]
14 | 111 | CCOc1nc(Cc2ccc(Cl)cc2)nc2oc(-c3cc(C)c(OCC(=O)N4CC(C(=O)OC)C4)c(C)c3)nc12 [Example 246]
15 | 110 | CCCOc1nc(Cc2ccc(Cl)cc2)nc2oc(-c3cc(C)c(OCC(=O)OCC(=O)O)c(C)c3)nc12 [Example 247]
16 | 89 | CCCOc1nc(Cc2ccc(Cl)cc2)nc2oc(-c3cc(C)c(OCC(=O)OC)c(C)c3)nc12 [Example 248]
17 | 104 | CCOc1nc(Cc2ccc(Cl)cc2)nc2oc(-c3cc(C)c(OCC(=O)NCCN(C)C)c(C)c3)nc12 [Example 249]
18 | 72 | CCOc1nc(Cc2ccc(Cl)cc2)nc2oc(-c3cc(C)c(OCC(=O)NCC(=O)OC(C)(C)C)c(C)c3)nc12 [Example 250]
19 | 112 | CCCOc1nc(Cc2ccc(Cl)cc2)nc2oc(-c3cc(C)c(OCCCC(=O)O)c(C)c3)nc12 [Example 251]
20 | 102 | CCCOc1nc(Cc2ccc(Cl)cc2)nc2oc(-c3cc(C)c(OCC(=O)NCc4ccco4)c(C)c3)nc12 [Example 252]
21 | 79 | CCOc1nc(Cc2ccc(Cl)cc2)nc2oc(-c3cc(C)c(OCC(=O)O)c(C)c3)nc12 [Example 253]
22 | 86 | CCCOc1nc(Cc2ccc(Cl)cc2)nc2oc(-c3cc(C)c(OCC(=O)NCC4CC4)c(C)c3)nc12 [Example 254]

More lines, now with the values behind:

Row | SMILES | % Activation (Edg-1 receptor activation in percent of the activation by 10 μM S1P) [%]
23 | CCCOc1nc(Cc2ccc(Cl)cc2)nc2oc(-c3ccc(Cl)nc3)nc12 [Example 201] | 68
24 | CCCOc1nc(CN2CC[C@H](F)C2)nc2oc(-c3cccc(F)c3)nc12 [Example 202] | 109
25 | CCCOc1nc(Cn2cnc(C#N)n2)nc2oc(-c3cccc(F)c3)nc12 [Example 203] | 79
26 | CCCOc1nc(Cn2cncn2)nc2oc(-c3cccc(F)c3)nc12 [Example 204] | 79
27 | CC(C)Oc1nc(CN2CCOCC2)nc2oc(-c3cccc(F)c3)nc12 [Example 205] | 115
28 | CCCOc1nc(Cc2ccc(Cl)cc2)nc2oc(-c3cc(C)c(OCC(O)CNC4CCN(CC(C)C)CC4)c(C)c3)nc12 (stereo not drawn) [Example 206] | 67
29 | CCCOc1nc(Cc2ccc(Cl)cc2)nc2oc(-c3ccc(OCC(O)CN)c(Cl)c3)nc12 (stereo not drawn) [Example 207] | 302
30 | CCOc1nc(Cc2ccc(Cl)cc2)nc2oc(-c3cc(C)c(OCC(O)CNC(C)=O)c(C)c3)nc12 (stereo not drawn) [Example 208] | 111
31 | CCCOc1nc(Cc2ccc(Cl)cc2)nc2oc(-c3cc(C)c(OCC(O)CNCc4ccccc4)c(C)c3)nc12 (stereo not drawn) [Example 209] | 110
32 | CCCOc1nc(Cc2ccc(Cl)cc2)nc2oc(-c3ccc(OCC(O)CNCc4ccccc4)c(Cl)c3)nc12 (stereo not drawn) [Example 210] | 94
33 | CCCOc1nc(Cc2ccc(Cl)cc2)nc2oc(-c3ccc(OCC(O)CNC4CCCCC4)c(Cl)c3)nc12 (stereo not drawn) [Example 211] | 112
34 | CCCOc1nc(Cc2ccc(Cl)cc2)nc2oc(-c3cc(C)c(OCC(O)CNC(=O)CO)c(C)c3)nc12 (stereo not drawn) [Example 212] | 78
35 | CCCOc1nc(Cc2ccccc2)nc2oc(-c3cccc(OCCO)c3)nc12 [Example 213] | 101
36 | CCCOc1nc(Cc2ccc(Cl)cc2)nc2oc(-c3cc(C)c(OCC(O)CNC(C)=O)c(C)c3)nc12 (stereo not drawn) [Example 214] | 106
37 | CCCOc1nc(Cc2ccccc2)nc2oc(-c3cccc(O)c3)nc12 [Example 215] | 96
38 | CCCC(=O)NCC(O)COc1c(C)cc(-c2nc3c(OCC)nc(Cc4ccc(Cl)cc4)nc3o2)cc1C (stereo not drawn) [Example 216] | 105
39 | CCOc1nc(Cc2ccc(Cl)cc2)nc2oc(-c3cc(C)c(OCC(O)CNC(=O)CC(C)C)c(C)c3)nc12 (stereo not drawn) [Example 217] | 78
40 | CCCOc1nc(Cc2ccc(Cl)cc2)nc2oc(-c3ccc(OC)c(Cl)c3)nc12 [Example 218] | 42
41 | CCCOc1nc(Cc2ccc(Cl)cc2)nc2oc(-c3ccc(OCC(=O)O)c(Cl)c3)nc12 [Example 219] | 107
42 | CCCOc1nc(Cc2ccc(Cl)cc2)nc2oc(-c3cc(C)c(OCC(O)CNC(=O)CC(C)C)c(C)c3)nc12 (stereo not drawn) [Example 220] | 69
43 | CCOc1nc(Cc2ccc(Cl)cc2)nc2oc(-c3cc(C)c(OCC(O)CNCC(c4cccnc4)N(C)C)c(C)c3)nc12 (stereo not drawn) [Example 221] | 84
44 | CCCOc1nc(Cc2ccc(Cl)cc2)nc2oc(-c3cc(C)c(OCCCNCCS(N)(=O)=O)c(C)c3)nc12 [Example 223] | 92
45 | CCCOc1nc(Cc2ccc(Cl)cc2)nc2oc(-c3cc(C)c(OCCCNCCC(=O)O)c(C)c3)nc12 [Example 224] | 113
46 | CCCOc1nc(Cc2ccc(Cl)cc2)nc2oc(-c3cc(C)c(OCCCNCCO)c(C)c3)nc12 [Example 225] | 100
47 | CCOc1nc(Cc2ccc(Cl)cc2)nc2oc(-c3cc(C)c(OCC(=O)N[C@@H](CO)C(=O)O)c(C)c3)nc12 [Example 226] | 98
48 | CCCOc1nc(Cc2ccc(Cl)cc2)nc2oc(-c3cc(C)c(OCCCNCc4nnn[nH]4)c(C)c3)nc12 [Example 227] | 142
49 | CCOc1nc(Cc2ccc(Cl)cc2)nc2oc(-c3cc(C)c(OCC(=O)N4CC(C(=O)O)C4)c(C)c3)nc12 [Example 228] | 107
50 | CCCOc1nc(Cc2ccc(Cl)cc2)nc2oc(-c3cc(C)c(OCCCN[C@@H](CCSC)C(=O)OC)c(C)c3)nc12 [Example 229] | 70
51 | CCCOc1nc(Cc2ccc(Cl)cc2)nc2oc(-c3cc(C)c(OCCCNCCC(=O)OC(C)(C)C)c(C)c3)nc12 [Example 230] | 101
52 | CCCOc1nc(Cc2ccc(Cl)cc2)nc2oc(-c3cc(C)c(OCC(=O)N4CC[C@H](O)C4)c(C)c3)nc12 [Example 231] | 104

same assay, conditions: example compound at 10 μM; relative to 10 μM S1P; GTP-γ-S SPA, human Edg-1 membranes; read-out: % Activation (Edg-1 receptor activation in percent of the activation by 10 μM S1P)

Row | activation at 10 µM [%] | SMILES
53 | 79 | CCCOc1nc(Cc2ccc(Cl)cc2)nc2oc(-c3cc(C)c(OCCCN4CCOCC4)c(C)c3)nc12 [Example 200, 5-(4-Chloro-benzyl)-2-[3,5-dimethyl-4-(3-morpholin-4-yl-propoxy)-phenyl]-7-propoxy-oxazolo[5,4-d]pyrimidine]
54 | 123 | CCOc1nc(Cc2ccc(Cl)cc2)nc2oc(-c3cc(C)c(OCC(=O)NCC(=O)O)c(C)c3)nc12 [Example 240, (2-{4-[5-(4-chloro-benzyl)-7-ethoxy-oxazolo[5,4-d]pyrimidin-2-yl]-2,6-dimethyl-phenoxy}-acetylamino)-acetic acid]

From patent US8735387B2, “Oxazolopyrimidines as Edg-1 receptor agonists” (Sanofi, priority 2008, dated 2014)
